Assay results as given in patent US20190375778A1, “ADENOSINE DERIVATIVES FOR USE IN THE TREATMENT OF CANCER” (NuCana plc, priority 2016, published 2019).

Assays:
[1] = tested on: RPMI-8226; test: CellTiterGlo viability assay, RPMI-8226; type: cell-based, Human; conditions: Homo sapiens, RPMI-8226, 72 h, read-out: IC50 RPMI-8226
Protocol: (§1) In vitro viability assay were performed to assess the effects of compounds on cell viability in selected cell lines over ˜72 hrs using the CellTiterGlo (CTG, Promega-G7573) assay. The tests were performed in duplicates with treatment of compounds at 9 points, 3.16 folds titration in 96 well plates over ˜72 hrs. The compound starting concentrations were 198 μM. Cell viability assay using CellTiterGlo in 96-well plate were performed. Compound treatment 72 hrs, standard growth conditions, duplicates. Compounds were dissolved to 40 mM with thawed […]. Compounds were serially diluted at 3.16 fold in thawed DMSO, and warmed to 37° C. before being dissolved in media (2 μl+200 μl). After compounds were dissolved in media, media containing compounds were warmed to 37° C. in incubator and then compounds in media were added to cell plates (50 μl+50 μl) in duplicates. The compounds' final concentrations were from […] to 19.9 nM. All compound solubilities were checked and recorded again, then the plates were transferred to CO2 tissue culture incubator immediately and incubated for 3 days. DMSO final concentration is 0.5%.

[2] = tested on: K562; test: CellTiterGlo viability assay, K562; type: cell-based; conditions: Homo sapiens, K562, 72 h, read-out: IC50 K562
Protocol: as §1

[3] = tested on: NCI-H929; test: CellTiterGlo viability assay, NCI-H929; type: cell-based; conditions: Homo sapiens, NCI-H929, 72 h, read-out: IC50 NCI-H929
Protocol: as §1

[4] = tested on: KG-1; test: CellTiterGlo viability assay, KG-1; type: cell-based; conditions: Homo sapiens, KG-1, 72 h, read-out: IC50 KG-1
Protocol: as §1

[5] = tested on: HL-60; test: CellTiterGlo viability assay, HL-60; type: cell-based; conditions: Homo sapiens, HL-60, 72 h, read-out: IC50 HL-60
Protocol: as §1

[6] = tested on: human cervix carcinoma HeLa cells; test: Cell proliferation (Coulter count) assay, HeLa; type: cell-based; conditions: 120 h, cell count on day 5, read-out: absolute IC50, HeLa
Text: (§2) Lovo: cell line derived from a metastatic site in a patient with colon cancer MCF7: human oestrogen sensitive mammary epithelial cell line PC3: human prostate cancer cell line A549: cancerous lung tissue derived cells L1210: lymphoblast cell line derived from a mouse with lymphocytic leukaemia FM3A: mammary carcinoma murine cells CEM: human T-lymphoblasts, derived from the blood of a patient with acute lymphoblastic leukaemia HeLa: epithelial cells from a patient with cervical adenocarcinoma
(§3) Murine leukemia L1210, human T-lymphocyte CEM, and human cervix carcinoma HeLa cells were obtained from the American Type Culture Collection (ATCC) (Rockville, Md.). All cells were maintained in Dulbecco's modified Eagle's medium (DMEM) (Invitrogen, Carlsbad, Calif.) with 10% fetal bovine serum (FBS) (Biochrom AG, Berlin, Germany), 10 mM Hepes, and 1 mM sodiumpyruvate (Invitrogen). Cells were grown at 37° C. in a humidified incubator with a gas phase of 5% CO2. Monolayer cells (HeLa and […]) were seeded in 96-well microtiter plates (Nunc, Roskilde, Denmark) at 10 000 cells/well. After 24 h, an equal volume of fresh medium containing the test compounds was added. On day 5, cells were trypsinized and counted in a Coulter counter (Analis, Suarlee, Belgium). Suspension cells (L1210, CEM) were seeded in 96-well microtiter plates (Nunc) at 60 000 cells/well in the presence of a given amount of the test compounds. The cells were allowed to proliferate for 48 h (L1210) or 72 h (CEM) and were then counted in a Coulter counter. The 50% inhibitory concentration (IC50) was defined as the compound concentration required to reduce cell proliferation by 50%. The cytostatic activity of the compounds was determined after 3 days, as outlined above.

[7] = tested on: MV4-11; test: CellTiterGlo viability assay, MV4-11; type: cell-based; conditions: Homo sapiens, MV4-11, 72 h, read-out: IC50 MV4-11
Protocol: as §1

[8] = tested on: CCRFCEM; test: CellTiterGlo viability assay, CCRFCEM; type: cell-based; conditions: Homo sapiens, CCRF-CEM, 72 h, read-out: IC50 CCRFCEM
Protocol: as §1

[9] = tested on: HEL92.1.7; test: CellTiterGlo viability assay, HEL92.1.7; type: cell-based; conditions: Homo sapiens, HEL 92.1.7, 72 h, read-out: IC50 HEL92.1.7
Protocol: as §1

[10] = tested on: RL; test: CellTiterGlo viability assay, RL; type: cell-based; conditions: Homo sapiens, RL, 72 h, read-out: IC50 RL
Protocol: as §1

[11] = tested on: Murine leukemia L1210; test: Cell proliferation (Coulter count) assay, L1210; type: cell-based; conditions: Mus musculus, 48 h, read-out: absolute IC50, L1210
Text: as §2, §3

[12] = tested on: human T-lymphocyte CEM; test: Cell proliferation (Coulter count) assay, CEM; type: cell-based; conditions: 72 h, read-out: absolute IC50, CEM
Text: as §2, §3

[13] = tested on: KG1a leukaemic stem cell compartment (Lin−/CD34+/CD38−/CD123+); test: Leukaemic stem cell compartment in KG1a; type: cell-based; conditions: for Change relative to control (%): % LSC compartment versus the series' control; for KG-1a (CD34+/CD38−/CD123+) % compartment: LSC as percentage of viable cells left, 72 hrs
Protocol: A further comparative analysis of the toxicity of compounds in the KG1a cell line over an extended dose range was carried out, and the relative effect assessed of the compounds on the leukaemic stem cell compartment within the KG1a cell line, across the entire dose range. Thus, experimental tests were performed on certain compounds of the present invention to assess their ability to target cancer stem cells in a leukaemic cell line. The acute myeloid leukaemia (AML) cell line, KG1a, was employed to assess the relative effect of compounds on the stem cell compartment. The KG1a cell line was selected because it manifests a minor stem cell-like compartment with a distinct immunophenotype (Lin^−/CD34^+/CD38^−/CD123^+).
Cells of the KG1a cell line were maintained in RPMI medium (Invitrogen, Paisley, UK) supplemented with 100 units/ml penicillin, 100 μg/ml streptomycin and 20% foetal calf serum. Cells were subsequently aliquoted (10^5 cells/100 μl) into 96-well plates and were incubated at 37° C. in a humidified 5% carbon dioxide atmosphere for 72 hrs in the presence of nucleoside analogues and their respective nucleotide analogues (known as ProTides) at concentrations that were experimentally determined for each series of compounds. In addition, control cultures were carried out to which no drug was added. Cells were subsequently harvested by centrifugation and were analyzed by flow cytometry using the Annexin V assay.
KG1a cells were cultured for 72 hrs in the presence of a wide range of concentrations of each compound assayed. Cells were then harvested and labelled with a cocktail of anti-lineage antibodies (PE-cy7), anti-CD34 (FITC), anti-CD38 (PE) and anti-CD123 (PERCP cy5). The sub-population expressing a leukaemic stem cell (LSC) phenotype were subsequently identified and were expressed as a percentage of all viable cells left in the culture. The percentages of stem cells remaining were then plotted on a dose-response graph and the effects of the compounds were compared with 8-chloroadenosine.
The data obtained in these experiments were evaluated using one way ANOVA. All data was confirmed as Gaussian or a Gaussian approximation using the omnibus K2 test. LD50 values were calculated from the non-linear regression and line of best-fit analysis of the sigmoidal dose-response curves. All statistical analyses were performed using Graphpad Prism 6.0 software (Graphpad Software Inc., San Diego, Calif.).

Row | SMILES | IC50 [6] [µM] | IC50 [11] [µM] | IC50 [12] [µM] | other results
1 | Nc1ncnc2c1nc(Cl)n2[C@@H]1O[C@H](COP(=O)(N[C@@H](Cc2ccccc2)C(=O)OCc2ccccc2)Oc2cccc3ccccc23)C(O)C1O (stereo partly drawn) [P, 5′-([(Benzyloxy-L-phenylalanin-N-yl)-naphth-1-yl]-phosphatyl) 8-chloroadenosine] | 0.1 to 5 | 5 to 15 | 0.1 to 5 | IC50 [1]: 0.1 to 5 µM; IC50 [2]: 0.1 to 5 µM; IC50 [3]: 0.1 to 5 µM; IC50 [4]: 5 to 15 µM; IC50 [5]: 0.1 to 5 µM; IC50 [7]: 0.1 to 5 µM; IC50 [8]: 5 to 15 µM; IC50 [9]: 0.1 to 5 µM; IC50 [10]: 5 to 15 µM
2 | CC(C)C[C@H](NP(=O)(OC[C@H]1O[C@@H](n2c(Cl)nc3c(N)ncnc32)C(O)C1O)Oc1cccc2ccccc12)C(=O)OC1CCCCC1 (stereo partly drawn) [J, 5′-([(Cyclohexyloxy-L-leucin-N-yl)-naphth-1-yl]-phosphatyl) 8-chloroadenosine] | 5 to 15 | 5 to 15 | 5 to 15 | –
3 | Nc1ncnc2c1nc(Cl)n2[C@@H]1O[C@H](COP(=O)(NCC(=O)OCc2ccccc2)Oc2cccc3ccccc23)C(O)C1O (stereo partly shown) [Compound L, 5′-([(benzylo-yl-glycin-N-yl)-naphth-1-yl]-phosphatyl) 8-chloroadenosine] | 0.1 to 5 | 5 to 15 | 0.1 to 5 | IC50 [1]: 0.1 to 5 µM; IC50 [2]: 5 to 15 µM; IC50 [3]: 15 to 100 µM; IC50 [4]: 5 to 15 µM; IC50 [5]: 5 to 15 µM; IC50 [7]: 0.1 to 5 µM; IC50 [8]: 5 to 15 µM; IC50 [9]: 0.1 to 5 µM; IC50 [10]: 5 to 15 µM
4 | CCOC(=O)[C@H](Cc1ccccc1)NP(=O)(OC[C@H]1O[C@@H](n2c(Cl)nc3c(N)ncnc32)C(O)C1O)Oc1cccc2ccccc12 (stereo partly drawn) [S, 5′-([(Ethyloxy-L-phenylalanin-N-yl)-naphth-1-yl]-phosphatyl) 8-chloroadenosine] | 0.1 to 5 | 15 to 100 | 5 to 15 | –
5 | CCOC(=O)[C@H](CC(C)C)NP(=O)(OC[C@H]1O[C@@H](n2c(Cl)nc3c(N)ncnc32)C(O)C1O)Oc1cccc2ccccc12 (stereo partly drawn) [K, 5′-([(ethyloxy-L-leucin-N-yl)-naphth-1-yl]-phosphatyl) 8-chloroadenosine] | 0.1 to 5 | 15 to 100 | 5 to 15 | –
6 | C[C@H](NP(=O)(OC[C@H]1O[C@@H](n2c(Cl)nc3c(N)ncnc32)C(O)C1O)Oc1cccc2ccccc12)C(=O)OC1CCCCC1 (stereo partly drawn) [G, 5′-([(Cyclohexyloxy-L-alanin-N-yl)-naphth-1-yl]-phosphatyl) 8-chloroadenosine] | 0.1 to 5 | 15 to 100 | 5 to 15 | –
7 | Nc1nc(Cl)nc2c1ncn2[C@@H]1O[C@H](CO)[C@@H](O)[C@@H]1F [Clofarabine] | – | – | – | Change relative to control (%) [13]: −0.2%; KG-1a (CD34+/CD38−/CD123+) % compartment [13]: 3.3%
8 | CCCCCOC(=O)CNP(=O)(OC[C@H]1O[C@@H](n2c(Cl)nc3c(N)ncnc32)C(O)C1O)Oc1cccc2ccccc12 (stereo partly shown) [O, 5′-([(Pent-1-yloxy-glycin-N-yl)-naphth-1-yl]-phosphatyl) 8-chloroadenosine] | 0.1 to 5 | 0.1 to 5 | 0.1 to 5 | IC50 [1]: 5 to 15 µM; IC50 [2]: 5 to 15 µM; IC50 [3]: 15 to 100 µM; IC50 [4]: 15 to 100 µM; IC50 [5]: 15 to 100 µM; IC50 [7]: 0.1 to 5 µM; IC50 [8]: 15 to 100 µM; IC50 [9]: 15 to 100 µM; IC50 [10]: 15 to 100 µM
9 | CCCCCOC(=O)[C@H](CC(C)C)NP(=O)(OC[C@H]1O[C@@H](n2c(Cl)nc3c(N)ncnc32)C(O)C1O)Oc1cccc2ccccc12 (stereo partly drawn) [I, 5′-([(Pent-1-yloxy-L-leucin-N-yl)-naphth-1-yl]-phosphatyl) 8-chloroadenosine] | 0.1 to 5 | 5 to 15 | 5 to 15 | –
10 | Nc1nc(Cl)nc2c1ncn2[C@H]1C[C@H](O)[C@@H](CO)O1 [Cladribine] | – | – | – | Change relative to control (%) [13]: +2.0%; KG-1a (CD34+/CD38−/CD123+) % compartment [13]: 6.0%
11 | CCOC(=O)[C@H](C)NP(=O)(OC[C@H]1O[C@@H](n2c(Cl)nc3c(N)ncnc32)C(O)C1O)Oc1cccc2ccccc12 (stereo partly drawn) [F, 5′-([(Ethyloxy-L-alanin-N-yl)-naphth-1-yl]-phosphatyl) 8-chloroadenosine] | 0.1 to 5 | 15 to 100 | 5 to 15 | –
12 | CCOC(=O)CNP(=O)(OC[C@H]1O[C@@H](n2c(Cl)nc3c(N)ncnc32)C(O)C1O)Oc1cccc2ccccc12 (stereo partly shown) [N, 5′-([(ethyloxy-glycin-N-yl)-naphth-1-yl]-phosphatyl) 8-chloroadenosine] | 0.1 to 5 | 15 to 100 | 15 to 100 | –
13 | Nc1ncnc2c1nc(Cl)n2[C@@H]1O[C@H](COP(=O)(NCC(=O)OC2CCCCC2)Oc2cccc3ccccc23)C(O)C1O (stereo partly shown) [M, 5′-([(Cyclohexyloxy-glycin-N-yl)-naphth-1-yl]-phosphatyl) 8-chloroadenosine] | 15 to 100 | 15 to 100 | 15 to 100 | –
14 | Nc1ncnc2c1nc(Cl)n2[C@@H]1O[C@H](COP(=O)(N[C@@H](Cc2ccccc2)C(=O)OC2CCCCC2)Oc2cccc3ccccc23)C(O)C1O (stereo partly drawn) [R, 5′-([(Cyclohexyloxy-L-phenylalanin-N-yl)-naphth-1-yl]-phosphatyl) 8-chloroadenosine] | 0.1 to 5 | 5 to 15 | 5 to 15 | –
15 | C[C@H](NP(=O)(N[C@@H](C)C(=O)OCc1ccccc1)OC[C@H]1O[C@@H](n2c(Cl)nc3c(N)ncnc32)C(O)C1O)C(=O)OCc1ccccc1 (stereo partly drawn) [AB, 8-Chloroadenosine 5′-O-bis(benzyloxy-L-alanin-N-yl) phosphate] | 0.1 to 5 | 5 to 15 | 0.1 to 5 | –
